Laboratory results: US20260324639A1, “MICROBIOCIDAL PYRAZOLE DERIVATIVES” (SYNGENTA CROP PROTECTION AG, priority 2022, published 2026)

Assays:
Mycosphaerella arachidis = Mycosphaerella arachidis (Cercospora arachidicola)/liquid culture (early leaf spot); format: cell-based; conditions: liquid culture, PDB, 24° C., growth inhibition photometric 4-5 days after application, read-out: control of Mycosphaerella arachidis compared to untreated control
Procedure: (§1) Conidia of the fungus from cryogenic storage are directly mixed into nutrient broth (PDB potato dextrose broth). After placing a (DMSO) solution of test compound into a microtiter plate (96-well format), the nutrient broth containing the fungal spores is added. The test plates are incubated at 24° C. and the inhibition of growth is determined photometrically 4-5 days after application.

Monographella nivalis = Monographella nivalis (Microdochium nivale)/liquid culture (foot rot cereals); format: cell-based; conditions: liquid culture, PDB, 24° C., growth inhibition photometric 4-5 days after application, read-out: control of Monographella nivalis compared to untreated control
Procedure: as §1

[1] = test system: Mycosphaerella graminicola; assay: Mycosphaerella graminicola (Septoria tritici)/liquid culture (Septoria blotch); format: cell-based; conditions: Zymoseptoria tritici, liquid culture, PDB, 24° C., growth inhibition photometric 4-5 days after application, read-out: control of Mycosphaerella graminicola compared to untreated control
Procedure: as §1

Phaeosphaeria nodorum = Phaeosphaeria nodorum (Septoria nodorum)/wheat/leaf disc preventative (glume blotch); format: in vivo; conditions: 200 ppm, wheat leaf segments cv. Kanzler, inoculated 2 days after application, assessed 5-7 days after application
Procedure: (§2) Wheat leaf segments cv. Kanzler are placed on agar in a multiwell plate (24-well format) and sprayed with the formulated test compound diluted in water. The leaf disks are inoculated with a spore suspension of the fungus 2 days after application. The inoculated test leaf disks are incubated at 20° C. and 75% rh under a light regime of 12 h light/12 h darkness in a climate cabinet and the activity of a compound is assessed as percent disease control compared to untreated when an appropriate level of disease damage appears in untreated check leaf disks (5-7 days after application).

Pyrenophora teres = assay: Pyrenophora teres/barley/leaf disc preventative (net blotch); format: in vivo; conditions: 200 ppm, barley leaf segments cv. Hasso, inoculated 2 days after application, assessed 5-7 days after application
Procedure: as §2, with “Barley” for “Wheat”, “Hasso” for “Kanzler”, “segments” for “disks”, “inoculated” for “inoculated test”, “65%” for “75%”, “as” for “as percent”

Glomerella lagenarium = Glomerella lagenarium (Colletotrichum lagenarium)/liquid culture (anthracnose); format: cell-based; conditions: Colletotrichum orbiculare, liquid culture, PDB, 24° C., growth inhibition photometric 3-4 days after application, read-out: control of Glomerella lagenarium compared to untreated control
Procedure: as §1, with “measured” for “determined”, “3-4” for “4-5”

Alternaria solani = assay: Alternaria solani/tomato/leaf disc (early blight); format: in vivo; conditions: 200 ppm; tomato leaf disks cv. Baby; inoculated 2 days after application; assessed 5-7 days after application
Procedure: Tomato leaf disks cv. Baby are placed on agar in multiwell plates (24-well format) and sprayed with the formulated test compound diluted in water. The leaf disks are inoculated with a spore suspension of the fungus 2 days after application. The inoculated leaf disks are incubated at 23° C./21° C. (day/night) and 80% rh under a light regime of 12/12 h (light/dark) in a climate cabinet and the activity of a compound is assessed as percent disease control compared to untreated when an appropriate level of disease damage appears on untreated check disk leaf disks (5-7 days after application).

Botryotinia fuckeliana = Botryotinia fuckeliana (Botrytis cinerea)/liquid culture (gray mould); format: cell-based; conditions: liquid culture, Vogels broth, 24° C., growth inhibition photometric 3-4 days after application, read-out: control of Botryotinia fuckeliana compared to untreated control
Procedure: as §1, with “(Vogels” for “(PDB potato dextrose”, “3-4” for “4-5”

Compound: COc1ccc2c(c1)[C@@H](c1cnn(C)c1)CN(C(=O)c1nnn(-c3ccc(F)cc3F)n1)[C@H]2C (single isomer, unassigned) [Compound P-38]
- inhibition of growth at 20 ppm (Mycosphaerella arachidis): ≥ 80%
- inhibition of growth at 20 ppm (Monographella nivalis): ≥ 80%
- inhibition of growth at 20 ppm [1]: ≥ 80%

Compound: Cc1c(C2CN(C(=O)c3nnn(-c4ccc(F)cc4F)n3)Cc3ccccc32)cnn1C (stereo not shown) [Compound P-31, [2-(2,4-difluorophenyl)tetrazol-5-yl]-[4-(1,5-dimethylpyrazol-4-yl)-3,4-dihydro-1H-isoquinolin-2-yl]methanone]
- inhibition of growth at 20 ppm (Mycosphaerella arachidis): ≥ 80%
- control of Phaeosphaeria nodorum compared to untreated control (Phaeosphaeria nodorum): at least 80%
- control of Pyrenophora teres compared to untreated control (Pyrenophora teres): at least 80%
- inhibition of growth at 20 ppm (Glomerella lagenarium): ≥ 80%
- inhibition of growth at 20 ppm (Monographella nivalis): ≥ 80%
- control of Alternaria solani compared to untreated control (Alternaria solani): at least 80%
- inhibition of growth at 20 ppm (Botryotinia fuckeliana): ≥ 80%
- inhibition of growth at 20 ppm [1]: ≥ 80%

Compound: Cc1nn(C)c(C)c1C1CN(C(=O)c2cn(-c3ccccc3)nn2)Cc2ccccc21 (stereo not shown) [Compound P-7, (1-phenyltriazol-4-yl)-[4-(1,3,5-trimethylpyrazol-4-yl)-3,4-dihydro-1H-isoquinolin-2-yl]methanone]
- inhibition of growth at 20 ppm (Mycosphaerella arachidis): ≥ 80%
- inhibition of growth at 20 ppm [1]: ≥ 80%

Compound: Cc1c([C@@H]2CN(C(=O)c3cn(-c4ncc(F)cc4F)nn3)[C@H](C)c3ccccc32)cnn1C [Compound P-44, [1-(3,5-difluoro-2-pyridyl)triazol-4-yl]-[(1R,4R)-4-(1,5-dimethylpyrazol-4-yl)-1-methyl-3,4-dihydro-1H-isoquinolin-2-yl]methanone]
- inhibition of growth at 20 ppm (Mycosphaerella arachidis): ≥ 80%
- inhibition of growth at 20 ppm (Glomerella lagenarium): ≥ 80%
- inhibition of growth at 20 ppm [1]: ≥ 80%

Compound: C[C@@H]1c2ccccc2[C@H](c2cnn(C)c2Cl)CN1C(=O)c1cn(-c2ccc(F)cc2F)nn1 [Compound P-47, [(1R,4R)-4-(5-chloro-1-methyl-pyrazol-4-yl)-1-methyl-3,4-dihydro-1H-isoquinolin-2-yl]-[1-(2,4-difluorophenyl)triazol-4-yl]methanone]
- inhibition of growth at 20 ppm (Mycosphaerella arachidis): ≥ 80%
- inhibition of growth at 20 ppm [1]: ≥ 80%

Compound: Cn1cc(C2CN(C(=O)c3cnn(-c4ccc(F)cc4)n3)Cc3ccccc32)cn1 (stereo not shown) [Compound P-18, [2-(4-fluorophenyl)triazol-4-yl]-[4-(1-methylpyrazol-4-yl)-3,4-dihydro-1H-isoquinolin-2-yl]methanone]
- inhibition of growth at 20 ppm (Monographella nivalis): ≥ 80%
- inhibition of growth at 20 ppm [1]: ≥ 80%

Compound: Cn1cc(C2(C)CN(C(=O)c3nnn(-c4ccc(F)cc4F)n3)Cc3ccccc32)cn1 (stereo not shown) [Compound P-32, [2-(2,4-difluorophenyl)tetrazol-5-yl]-[4-methyl-4-(1-methylpyrazol-4-yl)-1,3-dihydroisoquinolin-2-yl]methanone]
- inhibition of growth at 20 ppm [1]: ≥ 80%

Compound: Cn1cc(C2CN(C(=O)c3nnn(-c4ccccc4)n3)Cc3ccccc32)cn1 (stereo not shown) [Compound P-14, [4-(1-methylpyrazol-4-yl)-3,4-dihydro-1H-isoquinolin-2-yl]-(2-phenyltetrazol-5-yl)methanone]
- inhibition of growth at 20 ppm (Mycosphaerella arachidis): ≥ 80%
- control of Phaeosphaeria nodorum compared to untreated control (Phaeosphaeria nodorum): at least 80%
- control of Pyrenophora teres compared to untreated control (Pyrenophora teres): at least 80%
- inhibition of growth at 20 ppm (Glomerella lagenarium): ≥ 80%
- inhibition of growth at 20 ppm (Monographella nivalis): ≥ 80%
- control of Alternaria solani compared to untreated control (Alternaria solani): at least 80%
- inhibition of growth at 20 ppm (Botryotinia fuckeliana): ≥ 80%
- inhibition of growth at 20 ppm [1]: ≥ 80%

Compound: COc1ccc2c(c1)[C@H](c1cnn(C)c1)CN(C(=O)c1nnn(-c3ccccc3)n1)[C@@H]2C (single isomer, unassigned) [Compound P-36]
- inhibition of growth at 20 ppm (Mycosphaerella arachidis): ≥ 80%
- inhibition of growth at 20 ppm (Monographella nivalis): ≥ 80%
- inhibition of growth at 20 ppm [1]: ≥ 80%

Compound: Cc1c(C2CN(C(=O)c3cn(-c4ncc(F)cc4F)nn3)Cc3ccccc32)cnn1C (stereo not shown) [Compound P-57, [1-(3,5-difluoro-2-pyridyl)triazol-4-yl]-[4-(1,5-dimethylpyrazol-4-yl)-3,4-dihydro-1H-isoquinolin-2-yl]methanone]
- control of Phaeosphaeria nodorum compared to untreated control (Phaeosphaeria nodorum): at least 80%
- control of Pyrenophora teres compared to untreated control (Pyrenophora teres): at least 80%
- control of Alternaria solani compared to untreated control (Alternaria solani): at least 80%
- inhibition of growth at 20 ppm [1]: ≥ 80%

Compound: Cc1c([C@H]2CN(C(=O)c3cnn(-c4ccc(F)cc4F)n3)[C@@H](C)c3ccccc32)cnn1C (racemic) [Compound P-40, [2-(2,4-difluorophenyl)triazol-4-yl]-[rac-(1S,4S)-4-(1,5-dimethylpyrazol-4-yl)-1-methyl-3,4-dihydro-1H-isoquinolin-2-yl]methanone]
- control of Pyrenophora teres compared to untreated control (Pyrenophora teres): at least 80%
- inhibition of growth at 20 ppm [1]: ≥ 80%

Compound: Cn1cc(C2CN(C(=O)c3cn(-c4ccccc4)nn3)Cc3ccccc32)cn1 (stereo not shown) [Compound P-11, [4-(1-methylpyrazol-4-yl)-3,4-dihydro-1H-isoquinolin-2-yl]-(1-phenyltriazol-4-yl)methanone]
- inhibition of growth at 20 ppm (Glomerella lagenarium): ≥ 80%
- inhibition of growth at 20 ppm [1]: ≥ 80%

Compound: COc1ccc2c(c1)C(c1cnn(C)c1)CN(C(=O)c1nnn(-c3ccccc3)n1)C2C (stereo not shown) [Compound P-35, [6-methoxy-1-methyl-4-(1-methylpyrazol-4-yl)-3,4-dihydro-1H-isoquinolin-2-yl]-(2-phenyltetrazol-5-yl)methanone]
- inhibition of growth at 20 ppm (Mycosphaerella arachidis): ≥ 80%
- control of Pyrenophora teres compared to untreated control (Pyrenophora teres): at least 80%
- inhibition of growth at 20 ppm (Glomerella lagenarium): ≥ 80%
- inhibition of growth at 20 ppm (Monographella nivalis): ≥ 80%
- inhibition of growth at 20 ppm (Botryotinia fuckeliana): ≥ 80%
- inhibition of growth at 20 ppm [1]: ≥ 80%

Compound: Cn1cc(C2CN(C(=O)c3cn(-c4ccc(F)cc4F)nn3)Cc3ccccc32)cn1 (stereo not shown) [Compound P-8, [1-(2,4-difluorophenyl)triazol-4-yl]-[4-(1-methylpyrazol-4-yl)-3,4-dihydro-1H-isoquinolin-2-yl]methanone]
- control of Pyrenophora teres compared to untreated control (Pyrenophora teres): at least 80%

Compound: C[C@H]1c2ccccc2[C@@H](c2cnn(C)c2Cl)CN1C(=O)c1cnn(-c2ccc(F)cc2F)n1 [Compound P-45, [(1S,4S)-4-(5-chloro-1-methyl-pyrazol-4-yl)-1-methyl-3,4-dihydro-1H-isoquinolin-2-yl]-[2-(2,4-difluorophenyl)triazol-4-yl]methanone]
- inhibition of growth at 20 ppm [1]: ≥ 80%

Compound: COc1ccc2c(c1)C(c1cnn(C)c1)CN(C(=O)c1nnn(-c3ccc(F)cc3F)n1)C2C (racemic) [Compound P-34, [2-(2,4-difluorophenyl)tetrazol-5-yl]-[6-methoxy-1-methyl-4-(1-methylpyrazol-4-yl)-3,4-dihydro-1H-isoquinolin-2-yl]methanone]
- inhibition of growth at 20 ppm (Mycosphaerella arachidis): ≥ 80%
- inhibition of growth at 20 ppm (Monographella nivalis): ≥ 80%
- inhibition of growth at 20 ppm [1]: ≥ 80%

Compound: C[C@@H]1c2ccccc2[C@H](c2cnn(C)c2Cl)CN1C(=O)c1nnn(-c2ccc(F)cc2F)n1 [Compound P-50, [(1R,4R)-4-(5-chloro-1-methyl-pyrazol-4-yl)-1-methyl-3,4-dihydro-1H-isoquinolin-2-yl]-[2-(2,4-difluorophenyl)tetrazol-5-yl]methanone]
- inhibition of growth at 20 ppm [1]: ≥ 80%
